Measured values published in PMC9036094, “Antigen-derived peptides engage the ER stress sensor IRE1α to curb dendritic cell cross-presentation” (The Journal of Cell Biology, 2022).
Peptide text beside a SMILES is read from it. * marks the point of attachment. Cbz = O=C(OCc1ccccc1)*

How the values were obtained:
[1] = test system: PERK (ATF4, CHOP) in BMDCs; test: PERK activation in BMDCs (immunoblot of ATF4 and CHOP); type: cell-based, mouse; settings: MG132 5 μM or ovalbumin 500 μg/ml, in words
Protocol: (§1) Figure S1. Antigen pulsing of BMDCs activates IRE1α. (A) BMDCs were treated with MG132 (5 μM) or ovalbumin (500 μg/ml) for indicated time points and analyzed by IB. (B) BMDCs were pulsed with ovalbumin (500 μg/ml) and G9668 (3 μM) for indicated time periods and analyzed by IB. (C) Molecular structure, potency, and kinase selectivity of G9668. (D) Schematic representation of G9668 interaction with 220 kinases at 1 μM. Size and color of circles represent interaction strength. Analysis was conducted by KinomeScan. (E) BMDCs were pulsed for 4 h with APC-tagged ovalbumin or soluble CD4-Fc protein (500 μg/ml) with amiloride (10 μM); uptake of protein was assayed by flow cytometry (n = 3). (F) WT or MyD88 KO Flt3L-derived BMDCs were pulsed with ovalbumin (500 μg/ml) or soluble CD4-Fc protein (500 μg/ml), or treated with LPS (10 μg/ml) for 4 h and analyzed by IB. (G) MEFs and BMDCs were pulsed with ovalbumin or treated with Tg (100 nM) for 4 h and analyzed by IB. Images in A, B, F, and G represent at least two similar experiments, and molecular weights represent kD; E bar graphs represent mean ± SD from three independent biological repeats. Analysis for E was performed using unpaired, two-tailed t test; *, P ≤ 0.05; **, P ≤ 0.01. Source data are available for this figure: SourceData FS1. […]

[2] = test system: IRE1α (XBP1s, pIRE1α) in BMDCs; test: IRE1α activation in BMDCs (immunoblot); type: cell-based, mouse; settings: in words; for IRE1α activation: GM-CSF + IL-4 BMDCs, immunoblot for XBP1s/pIRE1α
Protocol: Figure 1. Antigen pulsing of BMDCs activates IRE1α. (A) BMDCs were pulsed with ovalbumin (starting at 62.5 μg/ml and sequentially doubled) and analyzed by immunoblot (IB) for the indicated markers. (B) BMDCs were pulsed with ovalbumin (starting at 500 μg/ml and sequentially halved) or […] (1 μM), or stimulated with tunicamycin (1 μg/ml) or poly-I:C (25 μg/ml) for 4 h, and analyzed by IB. (C) BMDCs were pulsed with ovalbumin (500 μg/ml) for indicated time points and analyzed by IB. (D) BMDCs were pulsed for 4 h with ovalbumin or lysates derived from the indicated cell lines (500 μg/ml protein) and analyzed by IB. […] (F) Upon removal from bone marrow, total bone marrow cells were transfected with non-targeting control (NTC) or TAP1-targeting gRNAs, along with CRISPR/Cas9 delivery constructs. Cells were then subjected to standard BMDC-differentiation protocol, pulsed with ovalbumin (500 μg/ml) for 4 h, and analyzed by IB. All IB images are representative of at least two similar experiments, and molecular weights represent kD. Source data are available for this figure: SourceData F1.
For purification and differentiation of BMDCs, the femur and tibia bones of C57BL/6 mice were flushed with sterile PBS, and bone marrow cells were then cultured in RPMI1640 media as described above and further supplemented with […] β2-mercaptoethanol (Sigma-Aldrich), 20 ng/ml GM-CSF (BioLegend), and 10 ng/ml IL-4 (BioLegend) for 9 d, with media being replenished every 3 d. Where indicated, Flt3L-BMDCs were similarly generated using media supplemented with 200 ng/ml recombinant mouse Flt3L (PeproTech; [Brasel et al., 2000]). After 9 d of culture, BMDCs were routinely verified to be >90% CD11c^+ MHC-II^high by flow cytometry analysis.
Thapsigargin (Sigma-Aldrich) was used at 100 nM, tunicamycin (Sigma-Aldrich) was used at 5 μg/ml, MG132 (Sigma-Aldrich) was used at 5 μM, Amiloride (Sigma-Aldrich) was used at 10 μM, actinomycin D (Sigma-Aldrich) was used at 4 μg/ml, LPS (Sigma-Aldrich) was used at 10 μg/ml, and poly-I:C (Sigma-Aldrich) was used at 25 μg/ml. Ovalbumin (Sigma-Aldrich), EF-OVA (EndoFit; InvivoGen), […] peptide (Sigma-Aldrich), and human CD4-Fc fusion protein (generated in-house at Genentech) were dissolved in PBS prior to pulsing and used at indicated concentrations.
Cells were lysed in PBS solution supplemented with 1X radioimmunoprecipitation assay buffer (Millipore) and 2X Halt protease-phosphatase inhibitor cocktail (Thermo Fisher Scientific). Upon clearance, samples were analyzed by SDS-PAGE, electrotransferred to nitrocellulose membranes (Invitrogen), and blocked by 5% powdered milk in PBSt (PBS supplemented with 0.1% tween) solution. Development was conducted with ECL reagent (Thermo Fisher Scientific) and imaging was performed with the ChemiDoc ZRS+ imager (Bio-Rad). Antibodies used for Western blot analysis include IRE1α (3294, rabbit; Cell Signaling Technology), β-actin (5125, rabbit; Cell Signaling), GAPDH (97166, mouse; Cell Signaling), ATF6 (66563-1-Ig, mouse; ProteinTech), TAP1 (12341, rabbit; Cell Signaling), CHOP (2895, mouse; Cell Signaling), ATF4 (11815, rabbit; Cell Signaling), ovalbumin (P1-196, rabbit; Thermo Fisher Scientific), human Fc (ab977225, rabbit; Abcam), Myc tag (2272, rabbit; Cell Signaling), and biotin (5597, rabbit; Cell Signaling). IRE1α lumenal domain (mouse), XBP1s (rabbit), and pIRE1α (rabbit) antibodies were generated at Genentech. Secondary antibodies used were for mouse (715-035-150; The Jackson Laboratory) and rabbit (711-035-152; The Jackson Laboratory).

[3] = test system: ATF6 in BMDCs; test: ATF6 activation in BMDCs (immunoblot, proteolytic processing); type: cell-based, mouse; settings: MG132 5 μM or ovalbumin 500 μg/ml, in words
Protocol: as §1

[4] = test system: IRE1α in MyD88 KO Flt3L-derived BMDCs; test: IRE1α activation in MyD88 KO Flt3L-derived BMDCs (immunoblot); type: cell-based, mouse; settings: ovalbumin 500 μg/ml or LPS 10 μg/ml, 4 h
Protocol: as §1

[5] = biological target: heat-denatured ovalbumin (UniProt P01012); test: ELISA; native or heat-denatured ovalbumin coated on a 96-well plate, blocked with 1% BSA; IRE1α LD-Fc (10 μg/ml) in PBS with 20 mM Hepes, 100 mM KOAc, 0.2% tween-20, 2 h, room temperature; detection with HRP-conjugated anti-human Fc antibody
[6] = test system: IRE1α LD-Fc; test: Co-immunoprecipitation of ovalbumin with IRE1α LD-Fc; type: binding, human; settings: LD-Fc 10 μg/ml, 2 h; ovalbumin 1-300 μg/ml; in words
Protocol: (§2) For experiments testing ovalbumin binding, a human LD-Fc was used at indicated concentrations. LD-Fc is comprised of amino acids M1-D443 of IRE1α fused C-terminally to a linker ([…]) followed by the human IgG1 hinge and Fc portion. Ovalbumin (Sigma-Aldrich) was dissolved in sterile PBS and used in native state or denatured as indicated by incubation at 95°C buffer for 10 min.
For co-immunoprecipitation experiments, IRE1α LD-Fc (10 μg/ml) and ovalbumin (indicated concentrations) were co-incubated in binding buffer (as described above) for 2 h and then immunoprecipitated with anti-IRE1α LD antibody (made in-house at Genentech), conjugated to sepharose beads, overnight at 4°C. Beads were subsequently washed four times with lysis buffer and boiled in SDS sample buffer for 10 min. Samples were then analyzed by SDS-PAGE followed by immunoblot.

[7] = test system: IRE1α LD-Fc; test: Plate-based ovalbumin binding to IRE1α LD-Fc; parameters: species or system human; settings: 2 h, room temperature
Protocol: as §2
For plate-based binding experiments, native or heat-denatured ovalbumin at indicated concentrations was bound to a flat-bottom 96-well plate (Corning Inc.) with coating buffer (BioLegend), washed with PBSt, blocked with 1% BSA in PBS, and subsequently incubated with IRE1α LD-Fc (10 μg/ml) in binding buffer composed of PBS with 20 mM Hepes, 100 mM KOAc, and 0.2% tween-20 for 2 h at room temperature. Plates were washed again with PBSt and incubated with an anti-human Fc HRP-conjugated antibody (ab977225; Abcam). Development was performed with 3,3′,5,5′-Tetramethylbenzidine solution and terminated with Stop solution (BioLegend). Readings were taken with a SpectraMax M2 spectrometer (Molecular Devices).

`CC(C)C[C@@H](C=O)NC(=O)[C@H](CC(C)C)NC(=O)[C@H](CC(C)C)NC(=O)OCc1ccccc1` [MG132, reference compound] (Cbz-Leu-Leu-Leu-aldehyde) was tested, and the PERK activation [1] was “robust activation”, the IRE1α activation [2] was “robust activation” and the ATF6 activation [3] was “robust activation”.

With “lipopolysaccharide [LPS, reference compound]” the “IRE1α activation, MyD88 KO BMDCs” value [4] was “failed to activate IRE1α”.

Molecule “IRE1α lumenal domain fused to an Fc tag (IRE1α LD-Fc) (from UniProt O75460 19-443) (Fc fusion)” has a Kd [5] of 300 µM.

In the case of tunicamycin [reference compound], the IRE1α activation [2] is reported as “potent pharmacological ER-stressor”.

With `N=C(N)NC(=O)c1nc(Cl)c(N)nc1N` [amiloride, reference compound] the “block of antigen-induced IRE1α activation” value ([2]; BMDCs pulsed with antigen 500 μg/ml, G9668 3 μM or amiloride 10 μM) was “blocked antigen-induced IRE1α stimulation in BMDCs”.

For “SIINFEKL [ovalbumin-derived octapeptide, reference compound]”, the IRE1α activation [2] was “little effect on IRE1α activity”.

“polyinosinic:polycytidylic acid [poly-I:C, reference compound]” was tested, and the IRE1α activation [2] was “much weaker IRE1α activation than did the potent pharmacological ER-stressor tunicamycin”.

B1: heat-denatured ovalbumin: ovalbumin denatured by incubation at 95°C for 10 min (protein)
chain: MGSIGAASMEFCFDVFKELKVHHANENIFYCPIAIMSALAMVYLGAKDSTRTQINKVVRFDKLPGFGDSIEAQCGTSVNVHSSLRDILNQITKPNDVYSFSLASRLYAEERYPILPEYLQCVKELYRGGLEPINFQTAADQARELINSWVESQTNGIIRNVLQPSSVDSQTAMVLVNAIVFKGLWEKAFKDEDTQAMPFRVTEQESKPVQMMYQIGLFRVASMASEKMKILELPFASGTMSMLVLLPDEVSGLEQLESIINFEKLTEWTSSNVMEERKIKVYLPRMKMEEKYNLTSVLMAMGITDVFSSSANLSGISSAESLKISQAVHAAHAEINEAGREVVGSAEAGVDAASVSEEFRADHPFLFCIKHIATNAVLFFGRCVSP
For B1, the “co-immunoprecipitation with IRE1α LD-Fc” value [6] was “concentration-dependent association”, the “binding to immobilized IRE1α LD-Fc” value ([7]; LD-Fc 10 μg/ml, in words) was “specific and saturable binding” and the Kd ([7]; plate-based, IRE1α LD-Fc 10 μg/ml, estimated, read-out: equilibrium dissociation constant (Kd)) was about 300 µM.
